Test results as given in patent publication US8889651B2, “Trehalose derivatives, preparation method and uses thereof” (Joyochem Co., Ltd., priority 2010, dated 2014).
Where two headings read alike, the source gives them in different places.

How the values were obtained:
normal cells = details: background statement; cited from earlier work
[1] = system: colon cancer 26-L5 cell invasion; details: background statement; read-out: anti-colon cancer 26-L5 cell invasion activity IC50; cited from earlier work
[2] = system: colon cancer 26-L5 cell invasion; test: recombinant basement membrane invasion experiment (Transwell/Matrigel); format: cell-based; details: for IC50 / IC50 (μg/mL): inhibition of colon cancer 26-L5 cell invasion
Protocol: Invasion and metastasis are basic characteristics of malignant tumors. During the tumor metastasis process, the tumor cell invasion into a basement membrane is an important link. A conventional recombinant basement membrane invasion experiment is adopted, a natural product Brartemicin is taken as positive control, and the inhibition action of trehalose derivatives against colon cancer 26-L5 cell invasion activity is determined.
Polycarbonate membrane 8 μm (Nucleopore, Pleasanton, Calif., USA); Transwell cell culture chamber (Costar 3422, Cambridge, Mass., USA); fibronectin (FN; Collaborative Research Inc., Bedford, Mass., USA); Matrigel (Collaborative Research Inc., Bedford, Mass., USA); RPMI1640 culture medium containing 1% of fetal calf serum (FCS) (Collaborative Research Inc., Bedford, Mass., USA); and hematoxylin-eosin (HE) staining kit (Collaborative Research Inc., Bedford, Mass, USA).
20 μg of fibronectin is smeared on the lower layer of a Transwell cell culture chamber, and 5 μg of Matrigel is smeared on the upper layer. Colon cancer 26-L5 cells in an exponential growth phase are suspended in an RPMI1640 culture medium containing 1% of fetal calf serum (FCS), which contains different concentrations of the trehalose derivatives or different concentrations of Brartemicin. […] The filter ester membranes contain the colored colon cancer 26-L5 cells after invasion. The ester membranes are placed on glass slides and are subjected to permeabilization by xylene, neutral resin is used for sealing, and the invasion cells are counted under a 400× microscope. The number of the penetrating cells of each membrane is counted from five different visual fields, namely upper, lower, left, right and middle visual fields, the average value is calculated, and three filter membranes are arranged in parallel in each group.
The natural product Brartemicin is taken as the positive control, the inhibition action of the trehalose derivatives against the colon cancer 26-L5 cell invasion activity is determined, and the activity experiment results are as shown in the following Table 1.

In the case of `Cc1cc(O)cc(O)c1C(=O)OC[C@H]1O[C@H](O[C@H]2O[C@H](COC(=O)c3c(C)cc(O)cc3O)[C@@H](O)[C@H](O)[C@H]2O)[C@H](O)[C@@H](O)[C@@H]1O` [Brartemicin], the “toxicity against normal cells” value (normal cells) is given as “no toxicity against normal cells”, the IC50 [1] is given as 390 nM and the IC50 ([2]; incubation 6-8 hours, read-out: IC50) is given as 0.25 µg/mL.

With `COc1ccccc1C(=O)OCC1OC(OC2OC(COC(=O)c3ccccc3OC)C(O)C(O)C2O)C(O)C(O)C1O` [Compound 3a, 6,6′-bis(2-methoxybenzoyl)-α,α-D-trehalose] the “anti-colon cancer 26-L5 cell invasion activity (in words)” value [2] was “strong anti-colon cancer 26-L5 cell invasion activity”.

For `Cc1ccccc1C(=O)OC[C@H]1O[C@H](O[C@H]2O[C@H](COC(=O)c3ccccc3C)[C@@H](O)[C@H](O)[C@H]2O)[C@H](O)[C@@H](O)[C@@H]1O` [Compound 3b, 6,6″-bis(2-methylbenzoyl)-α,α-D-trehalose], the “IC50 (μg/mL)” value ([2]; incubation 6-8 hours) was “NA (NA: no activity when IC50 is 10 μg/mL)”.

In the case of `COc1ccc(C(=O)OC[C@H]2O[C@H](O[C@H]3O[C@H](COC(=O)c4ccc(OC)cc4)[C@@H](O)[C@H](O)[C@H]3O)[C@H](O)[C@@H](O)[C@@H]2O)cc1` [Compound 3c, 6,6′-bis(4-methoxybenzoyl)-α,α-D-trehalose], the “IC50 (μg/mL)” value ([2]; incubation 6-8 hours) is reported as “NA (NA: no activity when IC50 is 10 μg/mL)”.

With `O=C(OCC1OC(OC2OC(COC(=O)c3ccc(O)cc3)C(O)C(O)C2O)C(O)C(O)C1O)c1ccc(O)cc1` (stereo not drawn) [Compound 3d] the “anti-colon cancer 26-L5 cell invasion activity (in words)” value [2] was “strong anti-colon cancer 26-L5 cell invasion activity”.

With `COc1cccc(C(=O)OC[C@H]2O[C@H](O[C@H]3O[C@H](COC(=O)c4cccc(OC)c4OC)[C@@H](O)[C@H](O)[C@H]3O)[C@H](O)[C@@H](O)[C@@H]2O)c1OC` [Compound 3e] the “activity compared with the natural product Brartemicin” value [2] was “stronger activity than the natural product Brartemicin”, the “anti-colon cancer 26-L5 cell invasion activity (in words)” value [2] was “strong anti-colon cancer 26-L5 cell invasion activity” and the “IC50” value ([2]; incubation 6-8 hours) was 0.10 µg/mL. The IC50 ([2]; same value given in μM, read-out: IC50) was 0.15 µM.

For `O=C(OCC1OC(OC2OC(COC(=O)c3c(F)cccc3F)C(O)C(O)C2O)C(O)C(O)C1O)c1c(F)cccc1F` (stereo not drawn) [Compound 3f], the “anti-colon cancer 26-L5 cell invasion activity (in words)” value [2] was “strong anti-colon cancer 26-L5 cell invasion activity”.

For `Cc1cccc(N)c1C(=O)OC[C@H]1O[C@H](O[C@H]2O[C@H](COC(=O)c3c(C)cccc3N)[C@@H](O)[C@H](O)[C@H]2O)[C@H](O)[C@@H](O)[C@@H]1O` [Compound 3g], the “anti-colon cancer 26-L5 cell invasion activity (in words)” value [2] was “strong anti-colon cancer 26-L5 cell invasion activity”.

With `COc1cc(C(=O)OCC2OC(OC3OC(COC(=O)c4ccc(F)c(OC)c4)C(O)C(O)C3O)C(O)C(O)C2O)ccc1F` (stereo not drawn) [Compound 3h] the “IC50 (μg/mL)” value ([2]; incubation 6-8 hours) was “NA (NA: no activity when IC50 is 10 μg/mL)”.

In the case of `COc1cc(C(=O)OC[C@H]2O[C@H](O[C@H]3O[C@H](COC(=O)c4cc(OC)c(OC)c(OC)c4)[C@@H](O)[C@H](O)[C@H]3O)[C@H](O)[C@@H](O)[C@@H]2O)cc(OC)c1OC` [Compound 3i], the “IC50 (μg/mL)” value ([2]; incubation 6-8 hours) is reported as “NA (NA: no activity when IC50 is 10 μg/mL)”.
